Measured values from PubChem BioAssay (NCI).
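Compound exposure: 48 hours, 5 concentrations, 96-well plates. GI50 = concentration required for 50% inhibition of growth. TGI: total growth inhibition.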

How the values were obtained:
Assay in all cases: NCI tumour cell line growth inhibition, 48 h
CAKI-1 renal = tested on: CAKI-1 renal
HT29 colon = tested on: HT29 colon
MOLT-4 leukemia = tested on: MOLT-4 leukemia
LOX IMVI melanoma = tested on: LOX IMVI melanoma
NCI/ADR-RES ovarian = tested on: NCI/ADR-RES ovarian
SN12C renal = tested on: SN12C renal
786-0 renal = tested on: 786-0 renal
HCT-15 colon = tested on: HCT-15 colon
RXF 393 renal = tested on: RXF 393 renal
SF-295 CNS = tested on: SF-295 CNS
A498 renal = tested on: A498 renal
TK-10 renal = tested on: TK-10 renal
K-562 leukemia = tested on: K-562 leukemia
SK-MEL-28 melanoma = tested on: SK-MEL-28 melanoma
SF-539 CNS = tested on: SF-539 CNS
SR leukemia = tested on: SR leukemia
OVCAR-8 ovarian = tested on: OVCAR-8 ovarian
HOP-62 NSCLC = tested on: HOP-62 NSCLC
NCI-H23 lung = tested on: NCI-H23 lung
COLO 205 colon = tested on: COLO 205 colon
OVCAR-5 ovarian = tested on: OVCAR-5 ovarian
MDA-MB-435 = tested on: MDA-MB-435
M14 melanoma = tested on: M14 melanoma
UACC-257 melanoma = tested on: UACC-257 melanoma
NCI-H460 lung = tested on: NCI-H460 lung
UACC-62 melanoma = tested on: UACC-62 melanoma
OVCAR-4 ovarian = tested on: OVCAR-4 ovarian
SK-OV-3 ovarian = tested on: SK-OV-3 ovarian
NCI-H522 lung = tested on: NCI-H522 lung
SK-MEL-5 melanoma = tested on: SK-MEL-5 melanoma
IGROV1 ovarian = tested on: IGROV1 ovarian
T-47D breast = tested on: T-47D breast
EKVX NSCLC = tested on: EKVX NSCLC
KM12 colon = tested on: KM12 colon
HCC-2998 colon = tested on: HCC-2998 colon
SK-MEL-2 melanoma = tested on: SK-MEL-2 melanoma
HOP-92 NSCLC = tested on: HOP-92 NSCLC
ACHN renal = tested on: ACHN renal
HL-60(TB) leukemia = tested on: HL-60(TB) leukemia
U251 CNS = tested on: U251 CNS
A549 NSCLC = tested on: A549 NSCLC
PC-3 prostate = tested on: PC-3 prostate
BT-549 breast = tested on: BT-549 breast
CCRF-CEM leukemia = tested on: CCRF-CEM leukemia
MALME-3M melanoma = tested on: MALME-3M melanoma
MCF7 breast = tested on: MCF7 breast
SNB-19 CNS = tested on: SNB-19 CNS
SNB-75 CNS = tested on: SNB-75 CNS
RPMI-8226 leukemia = tested on: RPMI-8226 leukemia
NCI-H226 lung = tested on: NCI-H226 lung
MDA-MB-231 breast = tested on: MDA-MB-231 breast
HCT-116 colon = tested on: HCT-116 colon
DU-145 prostate = tested on: DU-145 prostate
UO-31 renal = tested on: UO-31 renal
SF-268 CNS = tested on: SF-268 CNS
HS 578T breast = tested on: HS 578T breast
SW-620 colon = tested on: SW-620 colon

CN1CCN(Cc2ccc(NC(=O)c3cncc(C#Cc4cnc5ccc(OCC(C)(C)O)nn45)c3)cc2C(F)(F)F)CC1
GI50 (CAKI-1 renal): 0.183 µM | TGI (CAKI-1 renal): 0.528 µM | GI50 (HT29 colon): 0.203 µM | TGI (HT29 colon): 0.91 µM | GI50 (MOLT-4 leukemia): 0.269 µM | TGI (MOLT-4 leukemia): 1.41 µM | GI50 (LOX IMVI melanoma): 0.146 µM | TGI (LOX IMVI melanoma): 0.3 µM | GI50 (NCI/ADR-RES ovarian): 1.64 µM | TGI (NCI/ADR-RES ovarian): 4.68 µM | GI50 (SN12C renal): 0.153 µM | TGI (SN12C renal): 0.864 µM | GI50 (786-0 renal): 0.323 µM | TGI (786-0 renal): 0.96 µM | GI50 (HCT-15 colon): 0.287 µM | TGI (HCT-15 colon): 0.929 µM | GI50 (RXF 393 renal): 0.181 µM | TGI (RXF 393 renal): 0.392 µM | GI50 (SF-295 CNS): 0.726 µM | TGI (SF-295 CNS): 2.06 µM | GI50 (A498 renal): 0.199 µM | TGI (A498 renal): 0.395 µM | GI50 (TK-10 renal): 0.226 µM | TGI (TK-10 renal): 0.55 µM | TGI (K-562 leukemia): 1.85 µM | GI50 (SK-MEL-28 melanoma): 0.237 µM | TGI (SK-MEL-28 melanoma): 0.726 µM | GI50 (SF-539 CNS): 0.117 µM | TGI (SF-539 CNS): 0.403 µM | GI50 (SR leukemia): 0.249 µM | TGI (SR leukemia): 0.852 µM | GI50 (OVCAR-8 ovarian): 0.304 µM | TGI (OVCAR-8 ovarian): 1.05 µM | GI50 (HOP-62 NSCLC): 0.23 µM | TGI (HOP-62 NSCLC): 0.667 µM | GI50 (NCI-H23 lung): 0.185 µM | TGI (NCI-H23 lung): 0.478 µM | GI50 (COLO 205 colon): 0.178 µM | TGI (COLO 205 colon): 0.349 µM | GI50 (OVCAR-5 ovarian): 0.295 µM | TGI (OVCAR-5 ovarian): 1.2 µM | GI50 (MDA-MB-435): 0.207 µM | TGI (MDA-MB-435): 0.698 µM | GI50 (M14 melanoma): 0.139 µM | TGI (M14 melanoma): 0.305 µM | GI50 (UACC-257 melanoma): 0.318 µM | TGI (UACC-257 melanoma): 1.2 µM | GI50 (NCI-H460 lung): 0.297 µM | TGI (NCI-H460 lung): 0.851 µM | GI50 (UACC-62 melanoma): 0.199 µM | TGI (UACC-62 melanoma): 0.843 µM | GI50 (OVCAR-4 ovarian): 0.217 µM | TGI (OVCAR-4 ovarian): 1.04 µM | GI50 (SK-OV-3 ovarian): 0.378 µM | TGI (SK-OV-3 ovarian): 1.16 µM | GI50 (NCI-H522 lung): 0.179 µM | TGI (NCI-H522 lung): 0.37 µM | GI50 (SK-MEL-5 melanoma): 0.775 µM | TGI (SK-MEL-5 melanoma): 2.05 µM | GI50 (IGROV1 ovarian): 0.167 µM | TGI (IGROV1 ovarian): 1.06 µM | GI50 (T-47D breast): 0.369 µM | TGI (T-47D breast): 1.91 µM | GI50 (EKVX NSCLC): 0.257 µM | TGI (EKVX NSCLC): 0.997 µM | TGI (KM12 colon): 0.83 µM | GI50 (HCC-2998 colon): 0.334 µM | TGI (HCC-2998 colon): 1.02 µM | GI50 (SK-MEL-2 melanoma): 0.177 µM | TGI (SK-MEL-2 melanoma): 0.349 µM | GI50 (HOP-92 NSCLC): 0.0385 µM | TGI (HOP-92 NSCLC): 0.225 µM | GI50 (ACHN renal): 0.295 µM | TGI (ACHN renal): 1.06 µM | GI50 (HL-60(TB) leukemia): 0.264 µM | TGI (HL-60(TB) leukemia): 0.873 µM | GI50 (U251 CNS): 0.329 µM | TGI (U251 CNS): 1.12 µM | GI50 (A549 NSCLC): 0.317 µM | TGI (A549 NSCLC): 1.09 µM | GI50 (PC-3 prostate): 0.332 µM | TGI (PC-3 prostate): 1.75 µM | GI50 (BT-549 breast): 0.386 µM | TGI (BT-549 breast): 1.22 µM | GI50 (CCRF-CEM leukemia): 0.336 µM | TGI (CCRF-CEM leukemia): 12.5 µM | GI50 (MALME-3M melanoma): 0.127 µM | TGI (MALME-3M melanoma): 0.37 µM | GI50 (MCF7 breast): 0.146 µM | TGI (MCF7 breast): 0.897 µM | GI50 (SNB-19 CNS): 0.356 µM | TGI (SNB-19 CNS): 1.36 µM | GI50 (SNB-75 CNS): 0.21 µM | TGI (SNB-75 CNS): 0.572 µM | GI50 (RPMI-8226 leukemia): 0.344 µM | TGI (RPMI-8226 leukemia): 1.38 µM | GI50 (NCI-H226 lung): 0.148 µM | TGI (NCI-H226 lung): 1.34 µM | GI50 (MDA-MB-231 breast): 0.114 µM | TGI (MDA-MB-231 breast): 0.548 µM | GI50 (HCT-116 colon): 0.17 µM | TGI (HCT-116 colon): 0.889 µM | GI50 (DU-145 prostate): 0.26 µM | TGI (DU-145 prostate): 0.786 µM | GI50 (UO-31 renal): 0.339 µM | TGI (UO-31 renal): 1.06 µM | GI50 (SF-268 CNS): 0.18 µM | TGI (SF-268 CNS): 0.448 µM | GI50 (HS 578T breast): 0.156 µM | TGI (HS 578T breast): 0.578 µM | GI50 (SW-620 colon): 0.202 µM | TGI (SW-620 colon): 0.585 µM
